What follows are molecules tested against EGR-1 (Homo sapiens, UniProt P18146) (assay: EGR-1 DNA binding activity assay (EDBA)). Conditions: EGR-1 DNA binding inhibitory activity; EGR-1 overexpressing cell lysate; absorbance at 450 nm; compound concentration not given.
Design: made in house
Protocol: In this experiment, the inhibitory effect of the compounds of the present invention on EGR-1 binding activity was evaluated using an EGR-1 DNA binding activity assay (EDBA).
Single-stranded sense and antisense oligonucleotides of the following EGR-1 binding sequence (EBS) were prepared by outsourcing to Bioneer Co., Ltd. (Daejeon, Korea). In this case, the 5'-end of the sense oligonucleotide was labeled with biotin. The sense and antisense oligonucleotides were heated at 95 °C for 5 minutes and then left overnight at room temperature to hybridize the sense and antisense oligonucleotides. Hereinafter, the hybridized sense and antisense oligonucleotides are referred to as biotin-EBS. • Sense sequence: biotin-5'-[…]-3' • Antisense sequence: 5'-[…]-3'
Avidin protein was coated on a 96-well plate (purchased from Thermo Fisher Scientific), and biotin-EBS was added to the plate at a concentration of 0.5 pmol/50 µL/well, followed by reaction at 37 °C for 1 hour to allow biotin-EBS oligonucleotide to be attached to the plate. After washing three times with phosphate buffer saline containing 0.05% Tween 20 (PBS/Tween 20) to remove unattached biotin-EBS oligonucleotides, 200 µL of PBS/Tween 20 solution containing 2% bovine serum albumin (BSA) was added to each well, followed by reaction at 37 °C for 1 hour to block the surface of the plate where no oligonucleotide was attached.
The solution containing the sample compound and the EGR-1 protein was added to the biotin-EBS oligonucleotide coated plate prepared in step (2).
The compound sample (1 µL) was reacted with the EGR-1 overexpressing cell lysate containing 10 mM Tris, pH 7.5, 50 mM KCl, 2% BSA and 8% glycerol at room temperature for 30 minutes, and then added to a reaction well coated with biotin-EBS and further reacted at room temperature for one hour. After washing three times with PBS/Tween 20 solution, an EGR-1 antibody was added to the PBS solution supplemented with 2% BSA and 5 mM NaCl in an amount of 50 µL per each well. The mixture was incubated at room temperature for one hour, washed three times with PBS/Tween 20 solution, and then treated with horseradish peroxidase-conjugated secondary antibody (Goat anti-rabbit IgG antibody, Cell Signaling Technology company, Danvers, Mass., USA) diluted by 1:1000 at room temperature for one hour. After washing five times with PBS/Tween 20 solution, a substrate tetramethylbenzidine solution was added to each well in an amount of 50 µL. After reacting for 5 minutes, the reaction was stopped by adding 100 µL of 2 N sulfuric acid solution. The DNA binding inhibitory activity of EGR-1 was measured by absorbance at 450 nm according to Equation 1 below. EGR-1 DNA binding inhibitory activity (%) = 100−{(As/Ap)×100} [formula]
As: absorbance of a sample prepared by reacting an EGR-1-overexpressing cell lysate with the compound.
Ap: absorbance of the sample treated only with EGR-1-overexpressing cell lysate.

Sequence of EGR-1 (P18146 whole entry): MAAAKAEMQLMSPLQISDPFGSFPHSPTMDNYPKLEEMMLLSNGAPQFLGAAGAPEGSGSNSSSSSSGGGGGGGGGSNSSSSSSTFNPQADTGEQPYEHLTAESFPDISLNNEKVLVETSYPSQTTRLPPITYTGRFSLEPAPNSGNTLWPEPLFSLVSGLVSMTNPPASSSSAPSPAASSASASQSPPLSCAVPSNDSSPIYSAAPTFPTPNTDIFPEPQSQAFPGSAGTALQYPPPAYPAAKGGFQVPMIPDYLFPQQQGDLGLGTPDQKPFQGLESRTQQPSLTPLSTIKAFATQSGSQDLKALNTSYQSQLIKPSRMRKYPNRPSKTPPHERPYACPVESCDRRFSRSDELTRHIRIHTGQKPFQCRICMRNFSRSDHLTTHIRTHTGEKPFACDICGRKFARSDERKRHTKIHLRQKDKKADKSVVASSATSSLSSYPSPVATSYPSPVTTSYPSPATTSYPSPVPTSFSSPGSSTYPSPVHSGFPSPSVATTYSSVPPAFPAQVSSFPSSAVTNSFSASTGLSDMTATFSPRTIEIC

Structure (SMILES)	Inhibition Rate (%)
O=C1Nc2ccc(Br)cc2/C1=N/NC(=S)Nc1ccccc1 [Compound 44, (Z)-2-(5-bromo-2-oxoindolin-3-ylidene)-N-phenylhydrazinethioamide]	5.67%
O=C1Nc2cc(Br)ccc2/C1=N/NC(=S)Nc1ccccc1 [Compound 45, (Z)-2-(6-bromo-2-oxoindolin-3-ylidene)-N-phenylhydrazinethioamide]	9.33%
O=C1Nc2c(Br)cccc2/C1=N/NC(=S)Nc1ccccc1 [Compound 46, (Z)-2-(7-bromo-2-oxoindolin-3-ylidene)-N-phenylhydrazinethioamide]	11.33%
O=C1Nc2ccccc2/C1=N/NC(=S)Nc1cccc([N+](=O)[O-])c1 [Compound 47, (Z)-N-(3-nitrophenyl)-2-(2-oxoindolin-3-ylidene)hydrazinethioamide]	35.33%
O=C1Nc2ccc(Br)cc2/C1=N/NC(=S)Nc1cccc([N+](=O)[O-])c1 [Compound 48, (Z)-2-(5-bromo-2-oxoindolin-3-ylidene)-N-(3-nitrophenyl)hydrazinethioamide]	52.00%
O=C1Nc2c(Br)cccc2/C1=N/NC(=S)Nc1cccc([N+](=O)[O-])c1 [Compound 49, (Z)-2-(7-bromo-2-oxoindolin-3-ylidene)-N-(3-nitrophenyl)hydrazinethioamide]	50.33%
COc1cccc(NC(=S)N/N=C2\C(=O)Nc3ccccc32)c1 [Compound 50, (Z)-N-(3-methoxyphenyl)-2-(2-oxoindolin-3-ylidene)hydrazinethioamide]	27.33%
COc1cccc(NC(=S)N/N=C2\C(=O)Nc3cccc(Br)c32)c1 [Compound 51, (Z)-2-(4-bromo-2-oxoindolin-3-ylidene)-N-(3-methoxyphenyl)hydrazinethioamide]	28.67%
COc1cccc(NC(=S)N/N=C2\C(=O)Nc3ccc(Br)cc32)c1 [Compound 52, (Z)-2-(5-bromo-2-oxoindolin-3-ylidene)-N-(3-methoxyphenyl)hydrazinethioamide]	9.00%
COc1ccc(NC(=S)N/N=C2\C(=O)Nc3ccccc32)cc1 [Compound 53, (Z)-N-(4-methoxyphenyl)-2-(2-oxoindolin-3-ylidene)hydrazinethioamide]	10.00%
COc1ccc(NC(=S)N/N=C2\C(=O)Nc3cccc(Br)c32)cc1 [Compound 54, (Z)-2-(4-bromo-2-oxoindolin-3-ylidene)-N-(4-methoxyphenyl)hydrazinethioamide]	12.67%
COc1ccc(NC(=S)N/N=C2\C(=O)Nc3ccc(Br)cc32)cc1 [Compound 55, (Z)-2-(5-bromo-2-oxoindolin-3-ylidene)-N-(4-methoxyphenyl)hydrazinethioamide]	11.00%
COc1ccc(NC(=S)NN)cc1OC [Compound 56, N-(3,4-dimethoxyphenyl)hydrazinethioamide]	12.67%
O=C1Nc2ccccc2/C1=N/NC(=S)Nc1ccc(F)cc1 [Compound 57, (Z)-N-(4-fluorophenyl)-2-(2-oxoindolin-3-ylidene)hydrazinethioamide]	40.10%
O=C1Nc2cc(Br)ccc2/C1=N/NC(=S)Nc1ccc([N+](=O)[O-])cc1 [Compound 58, (Z)-2-(6-bromo-2-oxoindolin-3-ylidene)-N-(4-nitrophenyl)hydrazinethioamide]	46.97%
O=C1Nc2cccc(Cl)c2/C1=N/NC(=S)Nc1ccccc1 [Compound 59, (Z)-2-(4-chloro-2-oxoindolin-3-ylidene)-N-phenylhydrazinethioamide]	40.17%
O=C1Nc2cc(Cl)ccc2/C1=N/NC(=S)Nc1ccccc1 [Compound 60, (Z)-2-(6-chloro-2-oxoindolin-3-ylidene)-N-phenylhydrazinethioamide]	48.07%
COc1ccccc1NC(=S)N/N=C1\C(=O)Nc2cccc(Cl)c21 [Compound 61, (Z)-2-(4-chloro-2-oxoindolin-3-ylidene)-N-(2-methoxyphenyl)hydrazinethioamide]	43.03%

Structure (SMILES)	Inhibition Rate (%)
O=C1Nc2ccc(F)cc2/C1=N/NC(=S)Nc1cccc(C(F)(F)F)c1 [Compound 62, (Z)-2-(5-fluoro-2-oxoindolin-3-ylidene)-N-(3-(trifluoromethyl)phenyl)hydrazinethioamide]	10.00%
O=C1Nc2ccc(F)cc2/C1=N/NC(=S)NCc1ccccc1 [Compound 63, (Z)-N-benzyl-2-(5-fluoro-2-oxoindolin-3-ylidene)hydrazinethioamide]	48.77%
Cc1cccc(NC(=S)N/N=C2\C(=O)Nc3ccc(F)cc32)c1 [Compound 64, (Z)-2-(5-fluoro-2-oxoindolin-3-ylidene)-N-(m-tolyl)hydrazinethioamide]	37.90%
O=C1Nc2c(F)cccc2/C1=N/NC(=S)Nc1ccc([N+](=O)[O-])cc1 [Compound 65, (Z)-2-(7-fluoro-2-oxoindolin-3-ylidene)-N-(4-nitrophenyl)hydrazinethioamide]	43.03%
COc1ccc2c(c1)NC(=O)/C2=N\NC(=S)Nc1cccc(C(F)(F)F)c1 [Compound 66, (Z)-2-(6-methoxy-2-oxoindolin-3-ylidene)-N-(3-(trifluoromethyl)phenyl)hydrazinethioamide]	11.70%
COc1ccc2c(c1)NC(=O)/C2=N\NC(=S)Nc1ccc(F)cc1 [Compound 67, (Z)-N-(4-fluorophenyl)-2-(6-methoxy-2-oxoindolin-3-ylidene)hydrazin-1-carbothioamide]	25.90%
COc1ccc2c(c1)NC(=O)/C2=N\NC(=S)Nc1ccc(Br)cc1 [Compound 68, (Z)-N-(4-bromophenyl)-2-(6-methoxy-2-oxoindolin-3-ylidene)hydrazin-1-carbothioamide]	17.80%
COc1ccc2c(c1)NC(=O)/C2=N\NC(=S)NCc1ccccc1 [Compound 69, (Z)-N-benzyl-2-(6-methoxy-2-oxoindolin-3-ylidene)hydrazin-1-carbothioamide]	14.17%
Cc1ccc2c(c1)/C(=N/NC(=S)Nc1ccc(Br)cc1)C(=O)N2 [Compound 70, (Z)-N-(4-bromophenyl)-2-(5-methyl-2-oxoindolin-3-ylidene)hydrazinethioamide]	29.60%
Cc1ccc2c(c1)/C(=N/NC(=S)Nc1ccc(C#N)cc1)C(=O)N2 [Compound 71, (Z)-N-(4-cyanophenyl)-2-(5-methyl-2-oxoindolin-3-ylidene)hydrazinethioamide]	29.93%
Cc1ccc2c(c1)/C(=N/NC(=S)Nc1ccccc1)C(=O)N2 [Compound 72, (Z)-2-(5-methyl-2-oxoindolin-3-ylidene)-N-phenylhydrazinethioamide]	19.57%
CCNC(=S)N/N=C1\C(=O)Nc2ccc(C)cc21 [Compound 73, (Z)-N-ethyl-2-(5-methyl-2-oxoindolin-3-ylidene)hydrazinethioamide]	29.80%
Cc1ccc2c(c1)/C(=N/NC(=S)NCc1ccccc1)C(=O)N2 [Compound 74, (Z)-N-benzyl-2-(5-methyl-2-oxoindolin-3-ylidene)hydrazinethioamide]	40.60%
Cc1cccc(NC(=S)N/N=C2\C(=O)Nc3ccc(C)cc32)c1 [Compound 75, (Z)-2-(5-methyl-2-oxoindolin-3-ylidene)-N-(m-tolyl)hydrazinethioamide]	39.27%
O=C1Nc2ccc(OC(F)(F)F)cc2/C1=N/NC(=S)Nc1ccccc1 [Compound 76, (Z)-2-(2-oxo-5-(trifluoromethoxy)indolin-3-ylidene)-N-phenylhydrazinethioamide]	17.23%
O=C1Nc2ccc(OC(F)(F)F)cc2/C1=N/NC(=S)Nc1cccc([N+](=O)[O-])c1 [Compound 77, (Z)-N-(3-nitrophenyl)-2-(2-oxo-5-(trifluoromethoxy)indolin-3-ylidene)hydrazinethioamide]	37.37%
O=C1Nc2ccc(OC(F)(F)F)cc2/C1=N/NC(=S)Nc1ccc(F)cc1 [Compound 78, (Z)-N-(4-fluorophenyl)-2-(2-oxo-5-(trifluoromethoxy)indolin-3-ylidene)hydrazinethioamide]	33.93%
